Read-outs that look alike come from different tables or passages of the source.
Assays:
[1] = target: T1, cloned human h-NK1 receptors expressed in CHO cells (Homo sapiens, UniProt P25103); test: Binding experiment for h-NK1 receptors ([3H]-Substance P displacement); conditions: read-out: h-NK1 pIC50 (converted)
T1 construct: expressed in transfected cells; host or cells: CHO cells
Protocol: (§1) The compounds according to the invention were investigated for interaction with various neurotransmitter receptors, ion channels and transporter binding sites using the radioligand binding technique. Membranes from tissue homogenates or from cells, expressing the receptor or transporter of interests, were incubated with a radioactively labelled substance ([^3H]- or [^125I] ligand) to label a particular receptor. […] Following incubation, labelled membranes were harvested and rinsed with excessive cold buffer to remove non-bound radioactivity by rapid filtration under suction. Membrane bound radioactivity was counted in a scintillation counter and results were expressed in counts per minute (cpm).
(§2) The compounds were dissolved in DMSO and tested at 10 concentrations ranging from 10^−10 to 10^−5 M.
(§3) The ability of the compounds according to the invention to displace [^3H]-Substance P from cloned human h-NK1 receptors expressed in CHO cells, to displace [^3H]-SR-48968 from cloned human h-NK2 receptors expressed in Sf9 cells, and to displace [^3H]-SR-142801 from cloned human h-NK3 receptors expressed in CHO cells was evaluated.

[2] = target: T2, cloned human h-NK2 receptors expressed in Sf9 cells (Homo sapiens, UniProt P21452); test: Binding experiment for h-NK2 receptors ([3H]-SR-48968 displacement); conditions: [3H]-SR-48968, Sf9 cells; read-out: h-NK2 pIC50 (converted)
T2 construct: expressed in transfected cells; host or cells: Sf9 cells
T2 sequence (P21452 1-398): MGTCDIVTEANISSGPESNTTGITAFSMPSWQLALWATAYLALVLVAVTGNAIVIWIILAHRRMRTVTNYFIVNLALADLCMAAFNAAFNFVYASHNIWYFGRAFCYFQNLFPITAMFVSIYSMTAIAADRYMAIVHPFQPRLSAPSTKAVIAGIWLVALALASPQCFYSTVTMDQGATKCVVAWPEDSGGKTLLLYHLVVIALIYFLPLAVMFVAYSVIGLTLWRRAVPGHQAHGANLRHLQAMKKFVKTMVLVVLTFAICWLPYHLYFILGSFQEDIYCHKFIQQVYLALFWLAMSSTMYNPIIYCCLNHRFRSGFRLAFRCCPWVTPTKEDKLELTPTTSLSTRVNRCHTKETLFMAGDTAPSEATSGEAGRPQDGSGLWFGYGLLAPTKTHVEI
Protocol: as §1, §2, §3

[3] = test system: loperamide-induced retching; test: Antiemetic effects: loperamide-induced retching in ferrets; type: in vivo; conditions: for Ratio p.o./s.c. of ED50 for blockade of retching: p.o. (−2 h) over s.c. (−1 h)
Protocol: The antiemetic effects have been determined using the loperamide-induced retching model (i.e. retching induced by an opioid) in ferrets. To exclude species differences in antiemetic activiey, both compounds have also been tested for antiemetic activity against apomorphine in dogs.
Antagonism of emesis induced by the peripherally selective opioid loperamide (0.31 mg/kg, s.c.) was studied over a 1 h-period starting immediately after the emetic challenge in ferrets pretreated with test compound or solvent. In control animals pre-treated with solvent, loperamide induced pronounced retching (mean±SD: 95±39 counts; n=[…]) and, to a lesser extent, vomiting (5±4).

[4] = read-out: ED50 (95% confidence limits) for blockade of loperamide-induced retching, p.o. route (−2 h), ferrets, loperamide 0.31 mg/kg s.c., 2 h after oral administration, blockade = 0 retches
[5] = sc, read-out: ED50 for blockade of loperamide-induced retching, ferrets, loperamide 0.31 mg/kg s.c., 1 h after subcutaneous administration, blockade = 0 retches
[6] = ferrets, loperamide 0.31 mg/kg s.c., 2 h after oral administration, blockade = 0 retches
[7] = ferrets, loperamide 0.31 mg/kg s.c., 1 h after subcutaneous administration, blockade = 0 retches

T1 sequence (P25103 whole entry): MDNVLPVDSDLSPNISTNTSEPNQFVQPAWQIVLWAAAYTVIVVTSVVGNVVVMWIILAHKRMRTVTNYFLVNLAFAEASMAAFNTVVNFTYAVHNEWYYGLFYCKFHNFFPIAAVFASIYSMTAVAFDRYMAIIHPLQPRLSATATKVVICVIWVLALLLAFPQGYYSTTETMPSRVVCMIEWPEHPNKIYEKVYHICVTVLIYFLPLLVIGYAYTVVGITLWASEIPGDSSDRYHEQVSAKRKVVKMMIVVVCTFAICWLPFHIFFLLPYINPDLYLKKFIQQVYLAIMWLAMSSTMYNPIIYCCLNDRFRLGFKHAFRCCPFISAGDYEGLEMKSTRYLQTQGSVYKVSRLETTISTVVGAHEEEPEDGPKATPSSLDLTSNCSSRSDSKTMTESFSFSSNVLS

SMILES: Cc1nnsc1C(=O)N1CCC(N2CCN([C@H]3CCN(C(=O)c4cc(C(F)(F)F)cc(C(F)(F)F)c4)[C@H](Cc4ccccc4)C3)CC2)CC1 [Compound 78]
- IC50 [1]: 0.794 nM
- IC50 [2]: 398 nM

SMILES: O=C(c1cncc(N2CCCC2)c1)N1CCC(N2CCN(C3CCN(C(=O)c4cc(C(F)(F)F)cc(C(F)(F)F)c4)C(Cc4ccccc4)C3)CC2)CC1 (stereo not shown) [Compound 85]
- IC50 [1]: 3.16 nM

SMILES: O=C(C(c1ccccc1)N1CCC(N2CCN(C3CCN(C(=O)c4cc(C(F)(F)F)cc(C(F)(F)F)c4)C(Cc4ccccc4)C3)CC2)CC1)N1CCOCC1 (stereo not shown) [Compound 6]
- IC50 [1]: 1 nM

SMILES: Cc1nnsc1C(=O)N1CCC(N2CCN([C@H]3CCN(C(=O)c4cc(C(F)(F)F)cc(C(F)(F)F)c4)[C@H](Cc4ccccc4)C3)CC2)CC1 [Compound 77, (2-benzyl-4-{4-[1-(4-methyl-[1,2,3]thiadiazole-5-carbonyl)-piperidin-4-yl]-piperazin-1-yl}-piperidin-I -yl)-(3,5-bis-trifluoromethyl-phenyl)-methanone]
- IC50 [1]: 1 nM
- IC50 [2]: 794 nM
- ratio of oral ED50 (at time of peak effect) over subcutaneous ED50 (obtained at 1 h) ([3]; ferrets): 1.1
- ED50 ([3]; ferrets, blockade (=0 retches), intravenous route, 1 h after administration, read-out: ED50 for blockade of loperamide-induced retching): 0.26 mg/kg
- ED50 ([3]; ferrets, blockade (=0 retches), oral route, 1 h after administration, read-out: ED50 for blockade of loperamide-induced retching): 0.72 mg/kg
- ED50 ([3]; ferrets, blockade (=0 retches), oral route, 2 h after administration, read-out: ED50 for blockade of loperamide-induced retching): 0.42 mg/kg
- ED50 ([3]; ferrets, blockade (=0 retches), oral route, 4 h after administration, read-out: ED50 for blockade of loperamide-induced retching): 0.77 mg/kg
- ED50 ([3]; ferrets, blockade (=0 retches), oral route, 8 h after administration, read-out: ED50 for blockade of loperamide-induced retching): 0.34 mg/kg
- ED50 ([3]; ferrets, blockade (=0 retches), oral route, 16 h after administration, read-out: ED50 for blockade of loperamide-induced retching): 1.66 mg/kg
- ED50 ([3]; ferrets, blockade (=0 retches), oral route, 32 h after administration, read-out: ED50 for blockade of loperamide-induced retching): > 2.5 mg/kg
- ED50 ([3]; ferrets, inhibition (<20 retches), intravenous route, 1 h after administration, read-out: ED50 for inhibition of loperamide-induced retching): 0.15 mg/kg
- ED50 ([3]; ferrets, inhibition (<20 retches), oral route, 1 h after administration, read-out: ED50 for inhibition of loperamide-induced retching): 0.31 mg/kg
- ED50 ([3]; ferrets, inhibition (<20 retches), oral route, 2 h after administration, read-out: ED50 for inhibition of loperamide-induced retching): 0.08 mg/kg
- ED50 ([3]; ferrets, inhibition (<20 retches), oral route, 4 h after administration, read-out: ED50 for inhibition of loperamide-induced retching): 0.26 mg/kg
- ED50 ([3]; ferrets, inhibition (<20 retches), oral route, 8 h after administration, read-out: ED50 for inhibition of loperamide-induced retching): 0.29 mg/kg
- ED50 ([3]; ferrets, inhibition (<20 retches), oral route, 16 h after administration, read-out: ED50 for inhibition of loperamide-induced retching): 0.73 mg/kg
- ED50 ([3]; ferrets, inhibition (<20 retches), oral route, 32 h after administration, read-out: ED50 for inhibition of loperamide-induced retching): ~2.5 mg/kg
- ED50 ([3]; ferrets, oral administration, time of peak effect, read-out: graphically estimated peak-effect ED50 for blockade of retching (=0 retches)): 0.34 mg/kg
- duration of action ([3]; ferrets, oral, at 4 times the peak-effect dose): 16 h
- Ratio p.o./s.c. of ED50 for blockade of retching ([3]; ferrets): 1.3
- ED50 ([3]; iv, read-out: ED50 for blockade of retching 1 h after i.v. injection, ferrets, i.v., 1 h): 0.26 mg/kg
- ED50 ([3]; iv, read-out: ED50 for inhibition of retching 1 h after i.v. injection, ferrets, i.v., 1 h): 0.15 mg/kg
- ED50 [3, 4]: 0.42 mg/kg
- ED50 ([3]; read-out: graphically estimated peak-effect ED50 for inhibition of retching (<20 retches), ferrets, oral administration, time of peak effect): 0.16 mg/kg
- ED50 [3, 5]: 0.32 mg/kg
- ED50 ([3]; sc, ferrets, blockade (=0 retches), subcutaneous route, 1 h after administration, read-out: ED50 for blockade of loperamide-induced retching): 0.32 mg/kg
- ED50 ([3]; sc, ferrets, inhibition (<20 retches), subcutaneous route, 1 h after administration, read-out: ED50 for inhibition of loperamide-induced retching): 0.18 mg/kg
- ED50 ([3]; sc, ferrets, s.c., 1 h, <20 retches, read-out: ED50 for inhibition of retching one hour after s.c. injection): 0.18 mg/kg
- ED50 ([3]; sc, ferrets, s.c., 1 h, =0 retches, read-out: ED50 for complete blockade of retching one hour after s.c. injection): 0.32 mg/kg

SMILES: O=C(c1cccc(N2CCCC2)c1)N1CCC(N2CCN([C@H]3CCN(C(=O)c4cc(C(F)(F)F)cc(C(F)(F)F)c4)[C@H](Cc4ccccc4)C3)CC2)CC1 [Compound 42]
- IC50 [1]: 2.51 nM

SMILES: O=C(/C=C/c1cccnc1)N1CCC(N2CCN([C@H]3CCN(C(=O)c4cc(C(F)(F)F)cc(C(F)(F)F)c4)[C@H](Cc4ccccc4)C3)CC2)CC1 [Compound 110]
- IC50 [1]: 0.1 nM

SMILES: Cc1nnsc1C(=O)N1CCC(N2CCN([C@H]3CCN(C(=O)c4cc(C(F)(F)F)cc(C(F)(F)F)c4)[C@H](Cc4ccccc4)C3)CC2)CC1 [Compound 142]
- IC50 [1]: 1.26 nM
- IC50 [2]: 631 nM

SMILES: O=C(c1cc(C(F)(F)F)cc(C(F)(F)F)c1)N1CC[C@H](N2CCN(C3CCN(C(=O)C4(c5ccccc5)CC4)CC3)CC2)C[C@H]1Cc1ccccc1 [Compound 108]
- IC50 [1]: 1.58 nM

SMILES: Cc1nnsc1C(=O)N1CCC(N2CCN([C@H]3CCN(C(=O)c4cc(C(F)(F)F)cc(C(F)(F)F)c4)[C@H](Cc4ccccc4)C3)CC2)CC1 [Compound 143]
- IC50 [1]: 1 nM
- IC50 [2]: 794 nM

SMILES: CN(Cc1ccccc1)C(=O)C(Cc1ccc2ccccc2c1)NC(=O)[C@@H]1CCCN1C(=O)Nc1ccccc1[N+](=O)[O-] (stereo partly drawn) [SDZ-NKT-343, 2-Nitrophenylcarbamoyl-(S)-prolyl-3-(2-naphthyl)alanyl-N-benzyl-N-methylamide, reference compound]
- ED50 (95% confidence limits) for blockade of loperamide-induced retching, p.o. route (−2 h) [3, 6]: >2.5 mg/kg

SMILES: COc1ccccc1CN[C@H]1CCCN[C@H]1c1ccccc1 [CP-99994, reference compound]
- Ratio p.o./s.c. of ED50 for blockade of retching ([3]; ferrets): >16
- ED50 [3, 4]: > 10 mg/kg
- ED50 [3, 5]: 0.63 mg/kg

SMILES: COc1ccccc1CN[C@H]1C2CCN(CC2)[C@H]1C(c1ccccc1)c1ccccc1 [CP-96345, reference compound]
- ED50 ([3]; sc, 1 h, read-out: ED50 for blockade of loperamide-induced retching, s.c. route (−1 h)): > 10 mg/kg

SMILES: Cc1ccc(O)c(CN2CCC(N3CCN(C4CCN(C(=O)c5cc(C(F)(F)F)cc(C(F)(F)F)c5)C(Cc5ccccc5)C4)CC3)CC2)n1 (stereo not shown) [Compound 8]
- IC50 [1]: 0.631 nM

SMILES: O=C(c1cccc(C(=O)N2CCC(N3CCN([C@H]4CCN(C(=O)c5cc(C(F)(F)F)cc(C(F)(F)F)c5)[C@H](Cc5ccccc5)C4)CC3)CC2)c1)N1CCCC1 [Compound 45]
- IC50 [1]: 0.316 nM

SMILES: O=C(C1CCC1)N1CCC(N2CCN([C@H]3CCN(C(=O)c4cc(C(F)(F)F)cc(C(F)(F)F)c4)[C@H](Cc4ccccc4)C3)CC2)CC1 [Compound 102]
- IC50 [1]: 1 nM

SMILES: C[C@@H](O[C@H]1OCCN(Cc2n[nH]c(=O)[nH]2)[C@H]1c1ccc(F)cc1)c1cc(C(F)(F)F)cc(C(F)(F)F)c1 [Aprepitant/MK-869, Aprepitant, reference compound]
- ED50 for blockade of loperamide-induced retching, s.c. route (−1 h) [3, 7]: >1.25 mg/kg
- ED50 (95% confidence limits) for blockade of loperamide-induced retching, p.o. route (−2 h) [3, 6]: 3.1 (1.9-5.0) mg/kg
- Ratio p.o./s.c. of ED50 for blockade of retching ([3]; ferrets): <2.5

SMILES: C[C@@H](O[C@H]1OCCN(Cc2n[nH]nc2CN(C)C)[C@H]1c1ccc(F)cc1)c1cc(C(F)(F)F)cc(C(F)(F)F)c1 [Compound L-760735, reference compound]
- ED50 for blockade of loperamide-induced retching, s.c. route (−1 h) [3, 7]: 0.31 mg/kg

SMILES: COc1ccc(-n2cnnn2)cc1CN[C@H]1CCCN[C@H]1c1ccccc1 [GR-203040, (2S,3S)-(2-methoxy-5-tetrazol-1-ylbenzyl)(2-phenylpiperidin-3-yl)amine, reference compound]
- Ratio p.o./s.c. of ED50 for blockade of retching ([3]; ferrets): 3.1
- ED50 [3, 4]: 0.2 mg/kg
- ED50 [3, 5]: 0.064 mg/kg
